Laboratory results as given in PubChem BioAssay AID2742 (NMMLSC, 2010).
The source made the active and inactive calls.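 The calls were made as follows: active = fitted half-maximal concentration for changing background-corrected GFP signal at or below a set limit; inactive = the rest.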

Assay: TOR pathway reporter MEP2-GFP, concentration series – S. cerevisiae, flow cytometry GFP, MLPCN hits, dose response (AID 2742);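 also: GFP tag reports level of MEP2 protein as a downstream target of TOR signalling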
Conditions: S. cerevisiae MEP2-GFP strain, flow cytometry fluorescence, 3 h; at 33 µM (top of the series)

Compound | GFP fluorescence (kMESF), higher = increase
CN1CCN(C(c2ccc(C(F)(F)F)cc2)c2ccc3cccnc3c2O)CC1 (configuration not stated) | 4.86 kMESF (inactive)
CCOC(=O)c1ccc(N=Cc2nc(-c3ccccc3)oc2OC(C)=O)cc1 | 5.65 kMESF (inactive)
O=C1C=C(c2ccc(Cl)cc2)C(=O)N1Nc1ccccc1 | 5.31 kMESF (inactive)
O=C1NC(=O)N(CCc2ccc(F)cc2)C(=O)/C1=C/c1cccs1 | 4.39 kMESF (inactive)
COc1ccc(N2C(=O)CC(Sc3ncn[nH]3)C2=O)c(OC)c1 (configuration not stated) | 3.82 kMESF (inactive)
CCC(C)/C(C)=N/NC(=O)c1ccc(COc2ccc(Cl)c(C)c2)cc1 (configuration not stated) | 2.48 kMESF (inactive)
O=C1ON=C(c2ccc(Cl)cc2)/C1=C/c1ccc(O)cc1 | 3.61 kMESF (inactive)
Cc1cccc(N=Nc2ccc(O)c3ncccc23)c1 | 3.18 kMESF (inactive)
Cc1ccc(N=Nc2ccc(O)c3ncccc23)cc1 | 3.18 kMESF (inactive)
CC(C)[C@]1(c2ccccc2)ON(c2ccccc2C(F)(F)F)C1=O | 2.87 kMESF (inactive)
COc1ccc(/C=C/C(=O)NC(=S)NNC(=O)c2cnccn2)cc1 | 3.67 kMESF (inactive)
CCc1ccc2c(c1)/C(=C/C(=O)c1cccs1)C(=O)N2 | 3.95 kMESF (inactive)
Oc1cc(-c2ccc(N3CCCCC3)nc2)cc2cccnc12 | 3.04 kMESF (inactive)
CN(C)c1ccc(/C=C/c2cc[n+](C)cc2)cc1 | 2.76 kMESF (inactive)
CC(=O)Oc1ccc(N2C(=O)C3C4C=CC(O4)C3C2=O)cc1 (configuration not stated) | 3.13 kMESF (inactive)
CC(Oc1cccc(Cl)c1)C(=O)Nc1nc(-c2ccccn2)cs1 (configuration not stated) | 5.7 kMESF (inactive)
CC(Oc1cc2oc(=O)c3c(c2cc1Cl)CCC3)C(=O)NCCN1CCOCC1 (configuration not stated) | 2.37 kMESF (inactive)
Cc1cc(NC(c2ccc(Cl)cc2)c2ccc3cccnc3c2O)no1 (configuration not stated) | 4.11 kMESF (inactive)
Cc1c(Br)c(=O)oc2c(Br)c(O)c(O)cc12 | 2.07 kMESF (inactive)
Cc1ccc(C(=O)Oc2oc(-c3ccco3)nc2C=Nc2ccc(Cl)cc2)cc1 | 3.92 kMESF (inactive)
O=c1oc2cc(Oc3c([N+](=O)[O-])cc(C(F)(F)F)cc3[N+](=O)[O-])ccc2c2c1CCCC2 | 4.77 kMESF (inactive)

Compound | GFP fluorescence (kMESF), higher = increase
COc1ccc(N2C(=O)/C(=C/c3cccs3)C(=O)NC2=S)cc1 | 4.01 kMESF (inactive)
COc1ccc2c(c1)c(/C=C/c1cc[n+](C)cc1)cn2C | 4.56 kMESF (inactive)
CCOC(=O)CSC1=NC(=O)/C(=C/c2ccc(Br)cc2)S1 | 4.7 kMESF (inactive)
O=C(/C=C/c1ccc(Br)cc1)NC(=S)NNC(=O)c1ccco1 | 3.07 kMESF (inactive)
N=C1/C(=C\c2coc3ccccc3c2=O)C(=O)N=C2SC(c3ccncc3)=NN12 | -3.13 kMESF (inactive)
C/C(=N\NC(=O)c1cccc(Br)c1)c1ccccn1 | 4.33 kMESF (inactive)
Cc1nn2c(NCc3ccccn3)c3c(nc2c1-c1ccccc1)CCC3 | 2.73 kMESF (inactive)
COc1ccccc1NC1=C(Cl)C(=O)N(c2ccccc2)C1=O | 2.07 kMESF (inactive)
CC(=O)Oc1oc(-c2ccccc2)nc1C=Nc1ccccc1 | 3.71 kMESF (inactive)
Cc1cc(=O)oc2cc(Oc3ccc([N+](=O)[O-])cc3C(F)(F)F)ccc12 | 2.42 kMESF (inactive)
COc1ccc(C(=O)/C=C2/C(=O)Nc3ccccc32)c(OC)c1 | 3.34 kMESF (inactive)
CCCCOc1ccc(C(=O)NNC(=S)NC(=O)CC)cc1 | 6.17 kMESF (inactive)
O=C1c2ccccc2C(=O)C2OC12 (configuration not stated) | 3.37 kMESF (inactive)
C[C@@H]1C[C@@H]([C@H](O)CC2CC(=O)NC(=O)C2)C(=O)[C@@H](C)C1 | 3.27 kMESF (inactive)
Oc1c(C(Nc2cccc(C(F)(F)F)c2)c2ccncc2)ccc2cccnc12 (configuration not stated) | 4.71 kMESF (inactive)
CC(C)(C)C(=O)NC(=S)NNC(=O)c1sc2ccccc2c1Cl | 4.68 kMESF (inactive)
O=C1C(=O)c2ccccc2-c2ccccc21 | 2.76 kMESF (inactive)
O=C(c1ccc(Cl)c([N+](=O)[O-])c1)N1CCN(c2ccccc2)CC1 | 2.46 kMESF (inactive)
CCc1ccc(/C=C/C(=O)c2cc(Br)ccc(=O)c2O)cc1 | 5.16 kMESF (inactive)
CCOC(=O)/C(=C\c1cn(C)c2ccccc12)[N+](=O)[O-] | 6.34 kMESF (inactive)
Fc1cccc(Nc2ncnc3c2cnn3-c2ccccc2)c1 | 2.97 kMESF (inactive)
